ChEMBL document CHEMBL3046635, “Synthesis and Herbicidal Activity of New Pyrazole-4-carboxamide Derivatives” (J Pestic Sci, 2004)
Activity calls are given as the source filed them.

What follows are compounds tested on Oryza sativa (assay: Phytotoxicity against Oryza sativa cv. Koshihikari (rice) at 2000 g a.i/ha measured after 14 days). Conditions: in vivo, 336 h.
Assay type: organism-based

Structure (SMILES) | Activity
CCCN(CC)C(=O)c1cn(C)nc1OC(C)c1cccc(Br)c1 (stereo not drawn) | Non-toxic
CCCN(CC)C(=O)c1cn(C)nc1OCc1cccc(C#N)c1 | Non-toxic
CCCN(CC)C(=O)c1cn(C)nc1OCc1cccc(C)c1 | Non-toxic

These compounds were tested on Echinochloa oryzicola (assay: Pre-emergence herbicidal activity against Echinochloa oryzicola at 2000 g a.i/ha measured after 14 days). Conditions: not given.
Assay type: functional, organism-based

Structure (SMILES) | Activity
CCCN(CC)C(=O)c1cn(C)nc1OC(C)c1cccc(Br)c1 (stereo not drawn) | inactive
CCCN(CC)C(=O)c1cn(C)nc1OCc1cccc(C#N)c1 | inactive
CCCN(CC)C(=O)c1cn(C)nc1OCc1cccc(C)c1 | inactive

Each compound was assayed on Eleocharis acicularis (assay: Post-emergence herbicidal activity against Eleocharis acicularis assessed as bleaching of stem/leaf parts). Conditions: not given.
Assay type: functional, organism-based

Structure (SMILES) | Activity
CCCN(CC)C(=O)c1cn(C)nc1OC(C)c1cccc(Br)c1 (stereo not drawn) | Active
CCCN(CC)C(=O)c1cn(C)nc1OCc1cccc(C#N)c1 | Active
CCCN(CC)C(=O)c1cn(C)nc1OCc1cccc(C)c1 | Active

These compounds were tested on Eleocharis acicularis (assay: Pre-emergence herbicidal activity against Eleocharis acicularis assessed as bleaching of stem/leaf parts). Conditions: not given.
Assay type: functional, organism-based

Structure (SMILES) | Activity
CCCN(CC)C(=O)c1cn(C)nc1OC(C)c1cccc(Br)c1 (stereo not drawn) | Active
CCCN(CC)C(=O)c1cn(C)nc1OCc1cccc(C#N)c1 | Active
CCCN(CC)C(=O)c1cn(C)nc1OCc1cccc(C)c1 | Active

What follows are compounds tested on Ammannia multiflora (assay: Pre-emergence herbicidal activity against Ammannia multiflora assessed as bleaching of stem/leaf parts). Conditions: not given.
Assay type: functional, organism-based

Structure (SMILES) | Activity
CCCN(CC)C(=O)c1cn(C)nc1OC(C)c1cccc(Br)c1 (stereo not drawn) | Active
CCCN(CC)C(=O)c1cn(C)nc1OCc1cccc(C#N)c1 | Active
CCCN(CC)C(=O)c1cn(C)nc1OCc1cccc(C)c1 | Active

What follows are compounds tested on Rotala indica (assay: Pre-emergence herbicidal activity against Rotala indica assessed as bleaching of stem/leaf parts). Conditions: not given.
Assay type: functional, organism-based

Structure (SMILES) | Activity
CCCN(CC)C(=O)c1cn(C)nc1OC(C)c1cccc(Br)c1 (stereo not drawn) | Active
CCCN(CC)C(=O)c1cn(C)nc1OCc1cccc(C#N)c1 | Active
CCCN(CC)C(=O)c1cn(C)nc1OCc1cccc(C)c1 | Active

What follows are compounds tested on Elatine triandra (assay: Pre-emergence herbicidal activity against Elatine triandra assessed as bleaching of stem/leaf parts). Conditions: not given.
Assay type: functional, organism-based

Structure (SMILES) | Activity
CCCN(CC)C(=O)c1cn(C)nc1OC(C)c1cccc(Br)c1 (stereo not drawn) | Active
CCCN(CC)C(=O)c1cn(C)nc1OCc1cccc(C#N)c1 | Active
CCCN(CC)C(=O)c1cn(C)nc1OCc1cccc(C)c1 | Active

What follows are compounds tested on Lindernia procumbens (assay: Pre-emergence herbicidal activity against Lindernia procumbens assessed as bleaching of stem/leaf parts). Conditions: not given.
Assay type: functional, organism-based

Structure (SMILES) | Activity
CCCN(CC)C(=O)c1cn(C)nc1OC(C)c1cccc(Br)c1 (stereo not drawn) | Active
CCCN(CC)C(=O)c1cn(C)nc1OCc1cccc(C#N)c1 | Active
CCCN(CC)C(=O)c1cn(C)nc1OCc1cccc(C)c1 | Active

The compounds below were run on Schoenoplectiella juncoides (assay: Pre-emergence herbicidal activity against Schoenoplectiella juncoides assessed as bleaching of stem/leaf parts). Conditions: not given.
Assay type: functional, organism-based

Structure (SMILES) | Activity
CCCN(CC)C(=O)c1cn(C)nc1OC(C)c1cccc(Br)c1 (stereo not drawn) | Active
CCCN(CC)C(=O)c1cn(C)nc1OCc1cccc(C#N)c1 | Active
CCCN(CC)C(=O)c1cn(C)nc1OCc1cccc(C)c1 | Active

Each compound was assayed on Pontederia vaginalis (assay: Pre-emergence herbicidal activity against Monochoria vaginalis assessed as bleaching of stem/leaf parts). Conditions: not given.
Assay type: functional, organism-based

Structure (SMILES) | Activity
CCCN(CC)C(=O)c1cn(C)nc1OC(C)c1cccc(Br)c1 (stereo not drawn) | Active
CCCN(CC)C(=O)c1cn(C)nc1OCc1cccc(C#N)c1 | Active
CCCN(CC)C(=O)c1cn(C)nc1OCc1cccc(C)c1 | Active

The compounds below were run on Cyperus difformis (assay: Pre-emergence herbicidal activity against Cyperus difformis assessed as bleaching of stem/leaf parts). Conditions: not given.
Assay type: functional, organism-based

Structure (SMILES) | Activity
CCCN(CC)C(=O)c1cn(C)nc1OC(C)c1cccc(Br)c1 (stereo not drawn) | Active
CCCN(CC)C(=O)c1cn(C)nc1OCc1cccc(C#N)c1 | Active
CCCN(CC)C(=O)c1cn(C)nc1OCc1cccc(C)c1 | Active

What follows are compounds tested on Echinochloa oryzicola (assay: Pre-emergence herbicidal activity against Echinochloa oryzicola assessed as bleaching of stem/leaf parts). Conditions: not given.
Assay type: functional, organism-based

Structure (SMILES) | Activity
CCCN(CC)C(=O)c1cn(C)nc1OC(C)c1cccc(Br)c1 (stereo not drawn) | Active
CCCN(CC)C(=O)c1cn(C)nc1OCc1cccc(C#N)c1 | Active
CCCN(CC)C(=O)c1cn(C)nc1OCc1cccc(C)c1 | Active

What follows are compounds tested on Ammannia multiflora (assay: Post-emergence herbicidal activity against Ammannia multiflora assessed as bleaching of stem/leaf parts). Conditions: not given.
Assay type: functional, organism-based

Structure (SMILES) | Activity
CCCN(CC)C(=O)c1cn(C)nc1OC(C)c1cccc(Br)c1 (stereo not drawn) | Active
CCCN(CC)C(=O)c1cn(C)nc1OCc1cccc(C#N)c1 | Active
CCCN(CC)C(=O)c1cn(C)nc1OCc1cccc(C)c1 | Active

The compounds below were run on Elatine triandra (assay: Post-emergence herbicidal activity against Elatine triandra assessed as bleaching of stem/leaf parts). Conditions: not given.
Assay type: functional, organism-based

Structure (SMILES) | Activity
CCCN(CC)C(=O)c1cn(C)nc1OC(C)c1cccc(Br)c1 (stereo not drawn) | Active
CCCN(CC)C(=O)c1cn(C)nc1OCc1cccc(C#N)c1 | Active
CCCN(CC)C(=O)c1cn(C)nc1OCc1cccc(C)c1 | Active

These compounds were tested on Rotala indica (assay: Post-emergence herbicidal activity against Rotala indica assessed as bleaching of stem/leaf parts). Conditions: not given.
Assay type: functional, organism-based

Structure (SMILES) | Activity
CCCN(CC)C(=O)c1cn(C)nc1OC(C)c1cccc(Br)c1 (stereo not drawn) | Active
CCCN(CC)C(=O)c1cn(C)nc1OCc1cccc(C#N)c1 | Active
CCCN(CC)C(=O)c1cn(C)nc1OCc1cccc(C)c1 | Active

The compounds below were run on Schoenoplectiella juncoides (assay: Post-emergence herbicidal activity against Schoenoplectiella juncoides assessed as bleaching of stem/leaf parts). Conditions: not given.
Assay type: functional, organism-based

Structure (SMILES) | Activity
CCCN(CC)C(=O)c1cn(C)nc1OC(C)c1cccc(Br)c1 (stereo not drawn) | Active
CCCN(CC)C(=O)c1cn(C)nc1OCc1cccc(C#N)c1 | Active
CCCN(CC)C(=O)c1cn(C)nc1OCc1cccc(C)c1 | Active

These compounds were tested on Lindernia procumbens (assay: Post-emergence herbicidal activity against Lindernia procumbens assessed as bleaching of stem/leaf parts). Conditions: not given.
Assay type: functional, organism-based

Structure (SMILES) | Activity
CCCN(CC)C(=O)c1cn(C)nc1OC(C)c1cccc(Br)c1 (stereo not drawn) | Active
CCCN(CC)C(=O)c1cn(C)nc1OCc1cccc(C#N)c1 | Active
CCCN(CC)C(=O)c1cn(C)nc1OCc1cccc(C)c1 | Active

Each compound was assayed on Pontederia vaginalis (assay: Post-emergence herbicidal activity against Monochoria vaginalis assessed as bleaching of stem/leaf parts). Conditions: not given.
Assay type: functional, organism-based

Structure (SMILES) | Activity
CCCN(CC)C(=O)c1cn(C)nc1OC(C)c1cccc(Br)c1 (stereo not drawn) | Active
CCCN(CC)C(=O)c1cn(C)nc1OCc1cccc(C#N)c1 | Active
CCCN(CC)C(=O)c1cn(C)nc1OCc1cccc(C)c1 | Active

What follows are compounds tested on Cyperus difformis (assay: Post-emergence herbicidal activity against Cyperus difformis assessed as bleaching of stem/leaf parts). Conditions: not given.
Assay type: functional, organism-based

Structure (SMILES) | Activity
CCCN(CC)C(=O)c1cn(C)nc1OC(C)c1cccc(Br)c1 (stereo not drawn) | Active
CCCN(CC)C(=O)c1cn(C)nc1OCc1cccc(C#N)c1 | Active
CCCN(CC)C(=O)c1cn(C)nc1OCc1cccc(C)c1 | Active

What follows are compounds tested on Echinochloa oryzicola (assay: Post-emergence herbicidal activity against Echinochloa oryzicola assessed as bleaching of stem/leaf parts). Conditions: not given.
Assay type: functional, organism-based

Structure (SMILES) | Activity
CCCN(CC)C(=O)c1cn(C)nc1OC(C)c1cccc(Br)c1 (stereo not drawn) | Active
CCCN(CC)C(=O)c1cn(C)nc1OCc1cccc(C#N)c1 | Active
CCCN(CC)C(=O)c1cn(C)nc1OCc1cccc(C)c1 | Active

What follows are compounds tested on Eleocharis acicularis (assay: Pre-emergence herbicidal activity against Eleocharis acicularis at 2000 g a.i/ha measured after 14 days). Conditions: not given.
Assay type: functional, organism-based

Structure (SMILES) | Activity
CCCN(CC)C(=O)c1cn(C)nc1OC(C)c1cccc(Br)c1 (stereo not drawn) | inactive
CCCN(CC)C(=O)c1cn(C)nc1OCc1cccc(C#N)c1 | inactive

What follows are compounds tested on Schoenoplectiella juncoides (assay: Pre-emergence herbicidal activity against Schoenoplectiella juncoides at 2000 g a.i/ha measured after 14 days). Conditions: not given.
Assay type: functional, organism-based

Structure (SMILES) | Activity
CCCN(CC)C(=O)c1cn(C)nc1OC(C)c1cccc(Br)c1 (stereo not drawn) | inactive
CCCN(CC)C(=O)c1cn(C)nc1OCc1cccc(C#N)c1 | inactive
CCCN(CC)C(=O)c1cn(C)nc1OCc1cccc(C)c1 | Active

Each compound was assayed on Pontederia vaginalis (assay: Pre-emergence herbicidal activity against Monochoria vaginalis at 2000 g a.i/ha measured after 14 days). Conditions: not given.
Assay type: functional, organism-based

Structure (SMILES) | Activity
CCCN(CC)C(=O)c1cn(C)nc1OC(C)c1cccc(Br)c1 (stereo not drawn) | inactive
CCCN(CC)C(=O)c1cn(C)nc1OCc1cccc(C#N)c1 | inactive
CCCN(CC)C(=O)c1cn(C)nc1OCc1cccc(C)c1 | Active

What follows are compounds tested on Ammannia multiflora (assay: Pre-emergence herbicidal activity against Ammannia multiflora at 2000 g a.i/ha measured after 14 days). Conditions: not given.
Assay type: functional, organism-based

Structure (SMILES) | Activity
CCCN(CC)C(=O)c1cn(C)nc1OC(C)c1cccc(Br)c1 (stereo not drawn) | inactive
CCCN(CC)C(=O)c1cn(C)nc1OCc1cccc(C#N)c1 | inactive
CCCN(CC)C(=O)c1cn(C)nc1OCc1cccc(C)c1 | Active

What follows are compounds tested on Rotala indica (assay: Pre-emergence herbicidal activity against Rotala indica at 2000 g a.i/ha measured after 14 days). Conditions: not given.
Assay type: functional, organism-based

Structure (SMILES) | Activity
CCCN(CC)C(=O)c1cn(C)nc1OC(C)c1cccc(Br)c1 (stereo not drawn) | inactive
CCCN(CC)C(=O)c1cn(C)nc1OCc1cccc(C#N)c1 | inactive
CCCN(CC)C(=O)c1cn(C)nc1OCc1cccc(C)c1 | Active

What follows are compounds tested on Elatine triandra (assay: Pre-emergence herbicidal activity against Elatine triandra at 2000 g a.i/ha measured after 14 days). Conditions: not given.
Assay type: functional, organism-based

Structure (SMILES) | Activity
CCCN(CC)C(=O)c1cn(C)nc1OC(C)c1cccc(Br)c1 (stereo not drawn) | inactive
CCCN(CC)C(=O)c1cn(C)nc1OCc1cccc(C#N)c1 | inactive
CCCN(CC)C(=O)c1cn(C)nc1OCc1cccc(C)c1 | Active

Each compound was assayed on Lindernia procumbens (assay: Pre-emergence herbicidal activity against Lindernia procumbens at 2000 g a.i/ha measured after 14 days). Conditions: not given.
Assay type: functional, organism-based

Structure (SMILES) | Activity
CCCN(CC)C(=O)c1cn(C)nc1OC(C)c1cccc(Br)c1 (stereo not drawn) | inactive
CCCN(CC)C(=O)c1cn(C)nc1OCc1cccc(C#N)c1 | inactive
CCCN(CC)C(=O)c1cn(C)nc1OCc1cccc(C)c1 | Active

The compounds below were run on Cyperus difformis (assay: Pre-emergence herbicidal activity against Cyperus difformis at 2000 g a.i/ha measured after 14 days). Conditions: not given.
Assay type: functional, organism-based

Structure (SMILES) | Activity
CCCN(CC)C(=O)c1cn(C)nc1OC(C)c1cccc(Br)c1 (stereo not drawn) | inactive
CCCN(CC)C(=O)c1cn(C)nc1OCc1cccc(C#N)c1 | inactive
CCCN(CC)C(=O)c1cn(C)nc1OCc1cccc(C)c1 | Active
